Reference: US8859527B2 (priority 2009, dated 2014)
Read-outs that look alike come from different tables or passages of the source.

Legend:
[1] = water solubility by the method of Chinese Pharmacopoeia 2005; assay type: physicochemical; settings: DPT not included
Protocol: HP-β-CD and DPT are prepared into inclusion complexes under different conditions, and the DPT concentration in the inclusion complex is determined by ultraviolet spectrophotometry, and the composition molar ratio of DPT to HP-β-CD in the inclusion complex is further calculated; the water-solubility of the inclusion complex is determined according to the method specified in the examples of Chinese Pharmacopoeia 2005, so that solubility of DPT in this inclusion complex is further calculated.
With regard to the three factors, namely the concentration of HP-β-CD solution, the temperature for inclusion and the duration for inclusion, orthogonal experiments are carried out on three levels (the concentrations of the HP-β-CD solutions are 10%, 20% and 30%; the temperatures are 40° C., 50° C. and 60° C.; the duration is 1 hour, 2 hour and 3 hour), content and solubility of DPT in the inclusion complex are used as the evaluation parameters for the efficacy of inclusion, and the results are shown in Table 3. The solubility is determined by the method specified in the examples in Chinese Pharmacopoeia 2005, and the results are shown in Table 4.
The DPT content in the inclusion complex is determined by ultraviolet spectrophotometry. The solubility is determined by using the method specified in the examples in Chinese Pharmacopoeia 2005, and the results are shown in Table 6.

[2] = system: Hep G2 (human hepatic cancer cell line); assay: in vitro growth inhibition of tumor cells, Hep G2; assay type: cell-based; settings: HepG2, 48 hours
Protocol: (§1) The tumor strains are A-549 (human lung adenocarcinoma cell line), BGC-823 (human gastric cancer cell line), C-6 (rat neurogliocytoma cell line), Hep G2 (human hepatic cancer cell line), HL-60 (human leukemia cell line), K-562 (human erythremia cell line) and Hela (human cervical cancer cell line). […] The drug was prepared as a stock solution of 10^−2 M by using physiological saline and diluted into the test solution in a gradient composed of five concentrations: C1 5×10^−5 M, C2 10^−5 M, C3 10^−6 M, C4 10^−7 M and C5 10^−8 M.
(§2) Experimental method: different tumor cells in exponential growth phase are inoculated in 96-well plates in a certain amount and the selected samples are added after the cells are cultured for 24 hours (suspension cells can be directly added after being inoculated), after the cells are incubated at 37° C. and 5% CO2 for another 48 hours, […] is added for further incubation for another 4 hours, and finally the samples are examined on a microplate reader after dissolving with DMSO.

[3] = system: P-388 leukemia; settings: P-388 leukemia cell line; cited from earlier work
[4] = system: BGC-823 (human gastric cancer cell line); assay: in vitro growth inhibition of tumor cells, BGC-823; assay type: cell-based; settings: for Inhibition effects on in vitro growth: 48 hours
Protocol: as §1, §2

[5] = system: A-549 (human lung adenocarcinoma cell line); assay: in vitro growth inhibition of tumor cells, A-549; assay type: cell-based; settings: for Inhibition effects on in vitro growth: A549, 48 hours
Protocol: as §1, §2

[6] = system: Hela (human cervical cancer cell line); assay: in vitro growth inhibition of tumor cells, Hela; assay type: cell-based; settings: for Inhibition effects on in vitro growth: hela, 48 hours
Protocol: as §1, §2

[7] = system: transplanted tumor Heps; settings: Heps mice; for Body weight After administration / Tumor inhibition rate / Tumor weight: once every two days, four times
Protocol: (§3) Experimental groups: three dosage groups were set up for DPT, 10, 5 and 2.5 mg/kg; the blank control group: cyclophosphamide (CTX) group, Etoposide group 20 mg/kg.
(§4) Administration route: injection via tail vein, it is administered in a dosage of 0.4 ml/20 g body weight. Administration period: the drug is administrated 24 hours after the inoculation, once every two days for four times in total.
(§5) Experimental methods: 60 ICR mice with standard weight of from 18 to 22 g are inoculated with S-180 or Heps solid tumor according to the test method for transplanted tumors, hypodermic inoculation with 0.2 ml is carried out in the armpit in the anterior limb of every mouse. The body weight is determined 24 hours after the inoculation and they are randomly divided into six groups: the blank control group, the CTX group (20 mg/kg), the Etoposide group (20 mg/kg), the DPT group (10, 5 and 2.5 mg/Kg). The drug is administrated 24 hours after the inoculation once for every two days for 4 times, and tumor-bearing mice are killed on the next after drug withdrawal and their body weights are measured, and the separated tumor mess is weighed, and all of the data are subjected to statistical analyses (t-test).

[8] = system: transplanted tumor S180; settings: S180 mice; for Body weight After administration / Tumor weight / Tumor-inhibition rate: once every two days, four times
Protocol: as §3, §4, §5

[9] = system: human lung cancer A-549; settings: cited from earlier work
[10] = system: HL-60 (human leukemia cell line); assay: in vitro growth inhibition of tumor cells, HL-60; assay type: cell-based; settings: for Inhibition effects on in vitro growth: 48 hours
Protocol: as §1, §2

COc1cc([C@@H]2c3cc4c(cc3C[C@H]3COC(=O)[C@@H]32)OCO4)cc(OC)c1OC [DPT, Deoxypodophyllotoxin]
solubility of DPT in water [1]: about 0.5 mg/L
Inhibition effects on in vitro growth ([2]; 5 × 10^−5M): 52.98%
Inhibition effects on in vitro growth ([2]; 10^−5M): 31.85%
Inhibition effects on in vitro growth ([2]; 10^−6M): 22.49%
Inhibition effects on in vitro growth ([2]; 10^−7M): 24.36%
Inhibition effects on in vitro growth ([2]; 10^−8M): 24.32%
in vitro inhibition effects [3]: in vitro inhibition effects
Inhibition effects on in vitro growth ([4]; 5 × 10^−5M): 52.54%
Inhibition effects on in vitro growth ([4]; 10^−5M): 35.31%
inhibition effects compared with Etoposide ([4]; 10^−5 to 10^−8 M): significant better than that of Etoposide
Inhibition effects on in vitro growth ([4]; 10^−6M): 33.2%
Inhibition effects on in vitro growth ([4]; 10^−7M): 30.35%
Inhibition effects on in vitro growth ([4]; 10^−8M): 24.49%
Inhibition effects on in vitro growth ([5]; 5 × 10^−5M): 59.18%
Inhibition effects on in vitro growth ([5]; 10^−5M): 56%
Inhibition effects on in vitro growth ([5]; 10^−6M): 53.5%
Inhibition effects on in vitro growth ([5]; 10^−7M): 52.24%
Inhibition effects on in vitro growth ([5]; 10^−8M): 50.77%
inhibition effects compared with Etoposide ([5]; A-549, 10^−5 to 10^−8 M): significant better than that of Etoposide
inhibition effects compared with Etoposide ([6]; Hela, 10^−5 to 10^−8 M): significant better than that of Etoposide
Inhibition effects on in vitro growth ([6]; 5 × 10^−5M): 62.68%
Inhibition effects on in vitro growth ([6]; 10^−5M): 49.89%
Inhibition effects on in vitro growth ([6]; 10^−6M): 47.9%
Inhibition effects on in vitro growth ([6]; 10^−7M): 46.57%
Inhibition effects on in vitro growth ([6]; 10^−8M): 42.9%
Body weight Before administration ([7]; 2.5 mg/kg iv group): 20.20 ± 1.48 g
Body weight After administration ([7]; 2.5 mg/kg iv): 24.50 ± 2.22 g
Tumor inhibition rate ([7]; 2.5 mg/kg iv): 32.10%
Tumor weight ([7]; 2.5 mg/kg iv): 1.34 ± 0.29 g
Body weight Before administration ([7]; 5 mg/kg iv group): 20.80 ± 1.40 g
Body weight After administration ([7]; 5 mg/kg iv): 24.00 ± 3.46 g
Tumor inhibition rate ([7]; 5 mg/kg iv): 42.27%
Tumor weight ([7]; 5 mg/kg iv): 1.14 ± 0.15 g
Body weight Before administration ([7]; 10 mg/kg iv group): 21.40 ± 0.84 g
Body weight After administration ([7]; 10 mg/kg iv): 22.90 ± 2.73 g
Tumor inhibition rate ([7]; 10 mg/kg iv): 52.09%
Tumor weight ([7]; 10 mg/kg iv): 0.94 ± 0.32 g
Body weight Before administration ([8]; 2.5 mg/kg iv group): 19.70 ± 1.16 g
Body weight After administration ([8]; 2.5 mg/kg iv): 24.90 ± 2.47 g
Tumor weight ([8]; 2.5 mg/kg iv): 1.41 ± 0.30 g
Tumor-inhibition rate ([8]; 2.5 mg/kg iv): 23.44%
Body weight Before administration ([8]; 5 mg/kg iv group): 19.00 ± 0.94 g
Body weight After administration ([8]; 5 mg/kg iv): 22.50 ± 2.55 g
Tumor weight ([8]; 5 mg/kg iv): 1.08 ± 0.26 g
Tumor-inhibition rate ([8]; 5 mg/kg iv): 41.67%
Body weight Before administration ([8]; 10 mg/kg iv group): 19.40 ± 1.71 g
Body weight After administration ([8]; 10 mg/kg iv): 22.50 ± 2.07 g
Tumor weight ([8]; 10 mg/kg iv): 0.84 ± 0.27 g
Tumor-inhibition rate ([8]; 10 mg/kg iv): 54.53%
in vitro inhibition effects [9]: in vitro inhibition effects
Inhibition effects on in vitro growth ([10]; 5 × 10^−5M): 57.37%
Inhibition effects on in vitro growth ([10]; 10^−5M): 39.41%
inhibition effects compared with Etoposide ([10]; 10^−5 to 10^−8 M): significant better than that of Etoposide
Inhibition effects on in vitro growth ([10]; 10^−6M): 36.83%
Inhibition effects on in vitro growth ([10]; 10^−7M): 29.27%
Inhibition effects on in vitro growth ([10]; 10^−8M): 14.96%
